{"source": "patent EP0345251B1", "about": "(priority 1986, dated 1988)", "key": {"[1]": {"assay": "Chronic vincristine toxicity in mice, with and without Cronassial", "format": "in vivo, Male Swiss Schneider mice", "conditions": "for SURVIVORS No.at 30 d / survival at 720 h: chronic, host SN; for survival at 720 h: ip, 200 mg/kg, read-out: SURVIVAL % at 30 d", "procedure": "(§1) Toxicity acute and chronic. Male Swiss Schneider mice with a body weight of 25-30g were used for these experiments. Mice were usually kept in groups of not more than 8 in standard cages. Food and water were supplied ad libidum. The animals were kept in experimental rooms under closely controlled conditions. They were weighed daily. For acute vincristine toxicity in chicks, 48 hour old SPF chicks were used.\n(§2) Vincristine. A standard vial of 'Oncovin' (Eli Lilly Co.) containing 1 mg of vincristine was used. It was made up with the appropriate volume of diluting fluid to give the final concentration required to inject 0.1 ml/10 g body weight.\n(§3) Cronassial®. A solution of this substance, which is a mixture of four gangliosides, was prepared by the addition of a volume of sterile distilled water sufficient to give a concentration of 200 mg/kg in a volume of 0.2 ml. This dose was given to mice of approximately 20g.\nGiving daily injections of vincristine of 0.8 mg/kg for 5 days was close to the LD₅₀. By giving 200 mg/kg Cronassial® at the same time as the vincristine, the number of survivors at 30 days was increased to 100% Almost identical results were obtained by using 1 mg/kg vincristine, even though the drugs were administered for only 4 days. However the total dosage of vincristine administered in the two experiments (4 mg/kg) was identical. Increasing the cumulative dose of vincristine from 4 to 5 mg/kg increased the mortality of the mice to 100%. With this overwhelming toxicity, there was little or no protection offered by the Cronassial®."}, "[2]": {"assay": "Acute vincristine toxicity in mice, with and without Cronassial", "format": "in vivo, Male Swiss Schneider mice", "procedure": "as §1, §2, §3"}, "[3]": {"assay": "Acute vincristine toxicity in chicks, with and without Cronassial", "format": "in vivo, 48 hour old SPF chicks", "conditions": "for SURVIVORS AT 24hrs / SURVIVORS AT 28hrs / SURVIVORS AT 52hrs: acute, SPF 48hr chick, in combination CRON 200 mg/kg at same time", "procedure": "as §1\nIn contrast,of those chicks which received 200 mg/kg Cronassial® at the same time as the vincristine, only 2/5 had died at 24 hours but only 1 remained alive at 28 hours.\nWith 4 mg/kg vincristine, 4/5 chicks survived for 24 hours but only 1/5 survived for 28 hours. The chicks which additionally, received 200 mg/kg Cronassial® survived better with 3/5 surviving to 28 hours."}, "[4]": {"test_system": "sarcoma S180", "assay": "Antitumour activity against sarcoma S180 (tumour weight)", "format": "in vivo, Male Swiss Schneider mice", "conditions": "S180, host SN; VCR 0.5 mg/kg ip days 1-6; in combination CRON 200 mg/kg ip days 1-6, 6hrs before VCR; CMC-controls 1.05", "description": "(§4) Antitumour effects. Male Swiss Schneider mice of 27g body weight were used for the sarcoma S180 experiments: female C₅₇Bl mice of 20g body weight were used for the B16 melanoma experiments; male BDF₁ mice of 30g body weight were used for the L1210 leukaemia experiments; and C₅₇Bl mice of 20g body weight were used for the Lewis lung experiments.\nSarcoma S180. This tumour has been transplanted in the same strain of mouse for more than 10 years.\nTransplantation was done by subcutaneous inoculation of 0.1 ml of a tumour mash made by finely mincing viable tumour tissue and passing it repeatedly through a 26 gauge needle into a sterile Petri dish. 0.1 ml of penicillin (20,000 m/ml) and streptomycin (20,000 m/ml) were added to the mash, as well as neomycin (5 mgs)."}, "[5]": {"test_system": "melanoma B16", "assay": "Antitumour activity against melanoma B16 (tumour weight)", "format": "in vivo, female C₅₇Bl mice", "conditions": "B16, host C5781; VCR 0.5 mg/kg ip days 1-4,7-11; in combination CRON 200 mg/kg, 6hrs before VCR; CMC-controls 2.33", "procedure": "as §4\nMelanoma B16. This tumour was prepared for inoculation in a manner identical to that used for the S180 sarcoma."}, "[6]": {"test_system": "leukaemia L1210", "assay": "Antitumour activity against leukaemia L1210 (survival)", "format": "in vivo, BDF₁ mice", "conditions": "L1210, host BDF1; VCR 1.0 mg/kg ip days 1-3; in combination CRON 200 mg/kg ip days 1-3, same time as VCR; CMC-controls 8.0", "procedure": "Antitumour effects. Male Swiss Schneider mice of 27g body weight were used for the sarcoma S180 experiments: female C₅₇Bl mice of 20g body weight were used for the B16 melanoma experiments; […]; and C₅₇Bl mice of 20g body weight were used for the Lewis lung experiments.\nL1210. Spleens were removed from animals 7 days after inoculation of L1210 cells and these spleens were finely minced with 1:100 isotonic saline. 0.1 ml of this spleen and leukaemia L1210 cell suspension was then injected subcutaneously into the flank of each BDF₁."}}}
{"smiles": "CC[C@]1(O)C[C@H]2CN(CCc3c([nH]c4ccccc34)[C@@](C(=O)OC)(c3cc4c(cc3OC)N(C=O)[C@H]3[C@@](O)(C(=O)OC)[C@H](OC(C)=O)[C@]5(CC)C=CCN6CC[C@]43[C@@H]65)C2)C1", "note": "[VCR, vincristine]", "values": [{"measurement": "SURVIVORS No.at 30 d", "setting": "[1]; VCR 0.8 mg/kg ip days 1-5, in combination CRON 200 mg/kg ip days 1-5, 6hrs before VCR", "value": "5/8"}, {"measurement": "SURVIVORS No.at 30 d", "setting": "[1]; VCR 1.0 mg/kg ip days 1-4, in combination CRON 200 mg/kg ip days 1-4, 6hrs before VCR", "value": "3/8"}, {"measurement": "SURVIVORS No.at 30 d", "setting": "[1]; VCR 1.0 mg/kg ip days 1-5, in combination CRON 200 mg/kg ip days 1-5, 6hrs before VCR", "value": "0/6"}, {"measurement": "survival at 720 h", "setting": "[1]; mouse, in vivo, VCR 0.8 mg/kg ip days 1-5, in combination CRON 200 mg/kg ip days 1-5, 6hrs before VCR", "value": 62.5, "unit": "%"}, {"measurement": "survival at 720 h", "setting": "[1]; mouse, in vivo, VCR 1.0 mg/kg ip days 1-4, in combination CRON 200 mg/kg ip days 1-4, 6hrs before VCR", "value": 37.5, "unit": "%"}, {"measurement": "survival at 720 h", "setting": "[1]; mouse, in vivo, VCR 1.0 mg/kg ip days 1-5, in combination CRON 200 mg/kg ip days 1-5, 6hrs before VCR", "value": 0, "unit": "%"}, {"measurement": "mortality", "setting": "[1]; mouse, in vivo, cumulative dose of vincristine 5 mg/kg, mice", "value": 100, "unit": "%"}, {"measurement": "LD50", "setting": "[1]; mouse, in vivo, daily injections of vincristine for 5 days, mice, read-out: LD₅₀", "value": "~0.8", "unit": "mg/kg"}, {"measurement": "SURVIVORS No.at 30 d", "setting": "[2]; acute, host SN, VCR 3.0 mg/kg iv day 1, in combination CRON 200 mg/kg ip day 1, 6hrs before VCR", "value": "2/8"}, {"measurement": "survival at 720 h", "setting": "[2]; mouse, in vivo, acute, host SN, VCR 3.0 mg/kg iv day 1, in combination CRON 200 mg/kg ip day 1, 6hrs before VCR, read-out: SURVIVAL % at 30 d", "value": 25, "unit": "%"}, {"measurement": "mortality at 720 h", "setting": "[2]; mouse, in vivo, vincristine 3.0 mg/kg, one intravenous injection, Swiss Schneider mice, in combination 200 mg/kg Cronassial 6 hours before, read-out: deaths by day 30", "value": 75, "unit": "%"}, {"measurement": "toxicity", "setting": "[3]; 48 hour old chicks, vincristine 2 mg/kg, in combination Cronassial also given", "value": "little toxicity"}, {"measurement": "chicks with no acute neurotoxic signs during the first 4 hours", "setting": "[3]; 48 hour old chicks, vincristine 6 mg/kg", "value": "3/4"}, {"measurement": "dead at 24 hours", "setting": "[3]; 48 hour old chicks, vincristine 6 mg/kg, in combination 200 mg/kg Cronassial at the same time", "value": "All the chicks were dead"}, {"measurement": "SURVIVORS AT 24hrs", "setting": "[3]; VCR 2.0 mg/kg ip day 1", "value": "2/2"}, {"measurement": "SURVIVORS AT 28hrs", "setting": "[3]; VCR 2.0 mg/kg ip day 1", "value": "2/2"}, {"measurement": "SURVIVORS AT 52hrs", "setting": "[3]; VCR 2.0 mg/kg ip day 1", "value": "1/2"}, {"measurement": "SURVIVORS AT 24hrs", "setting": "[3]; VCR 4.0 mg/kg ip day 1", "value": "4/5"}, {"measurement": "SURVIVORS AT 28hrs", "setting": "[3]; VCR 4.0 mg/kg ip day 1", "value": "1/5"}, {"measurement": "SURVIVORS AT 52hrs", "setting": "[3]; VCR 4.0 mg/kg ip day 1", "value": "1/5"}, {"measurement": "SURVIVORS AT 24hrs", "setting": "[3]; VCR 6.0 mg/kg ip day 1", "value": "0/4"}, {"measurement": "TUMOUR WEIGHTS MEAN", "setting": "[4]", "value": 0.64, "unit": "g"}, {"measurement": "TUMOUR WEIGHTS MEAN", "setting": "[5]", "value": 1.46, "unit": "g"}, {"measurement": "Mean survival time", "setting": "[6]", "value": 7.8, "unit": "days"}]}
